In ChEMBL document CHEMBL1201862, “PubChem BioAssay data set” (2004):
The source made the active and inactive calls.

Tests used:
[1] = target: Neuropeptide Y receptor type 2 (Homo sapiens, UniProt P49146); format: functional, cell-based;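 further: HEK293 cells expressing the receptor and a CNG channel; stimulus was NPY near EC95 followed by isoproterenol to raise cAMP; antagonist potency measured as restoring cAMP signal that NPY suppresses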
[2] = cytotoxicity toward NIH3T3 fibroblasts, dose response, counter-screen, cell-based, ATP luminescence, mouse fibroblasts (AID 2010); format: functional;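 further: cells exposed to compound for about 90 hours before reading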
[3] = inhibitors of intracellular T. cruzi replication, confirmation, NIH3T3 host cells, beta-gal luminescence (AID 2044); format: functional, cell-based;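 further: intracellular parasites grown in NIH/3T3 mouse fibroblasts as host cells; luminescent beta-galactosidase reporter signal from transgenic T. cruzi replicating inside host cells; inhibitors lower the luminescence signal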
[4] = growth suppression of beta-catenin-knockout colon cells, dose response, cell-based, HCT116, human colon tumor (AID 1045); format: functional;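 further: HCT116 colon tumor cells with beta catenin knocked out; cells exposed to compound for 60 hours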
[5] = target: RNA-editing ligase 1, mitochondrial (Trypanosoma brucei brucei, UniProt P86926); assay: TbREL1 ligase inhibitors, dose response, biochemical, fluorescence, Trypanosoma brucei (AID 1117295); format: functional
[6] = growth suppression of PTEN-null colon cells, dose response, cell-based, HCT116 PTEN knockout (AID 1047); format: functional;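 further: HCT116 colon tumor cells with PTEN knocked out; cells exposed to compound for 60 hours before readout; potency for loss of cell viability measured by luminescence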
[7] = target: Neuropeptide Y receptor type 1 (Homo sapiens, UniProt P25929); format: functional;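 further: HEK293 cells with a CNG channel challenged with NPY then isoproterenol; potency as antagonist that reverses NPY suppression of cAMP signal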
Insulin-degrading enzyme = target: T1, Insulin-degrading enzyme (Homo sapiens, UniProt P14735); assay: Dose Response: Fluorescence polarization-based cell-based high throughput dose response assay for inhibitors of insulin-degrading enzyme (IDE). [Related pubchem assays: 434962 (Primary screen (IDE inhibitors in singlicate)), 449730 (Counterscreen (Cytotoxicity in triplicate)), 435028 (Confirmation (IDE inhibitors in triplicate)), 434984 (Summary …; format: functional
T1 sequence (P14735 whole entry): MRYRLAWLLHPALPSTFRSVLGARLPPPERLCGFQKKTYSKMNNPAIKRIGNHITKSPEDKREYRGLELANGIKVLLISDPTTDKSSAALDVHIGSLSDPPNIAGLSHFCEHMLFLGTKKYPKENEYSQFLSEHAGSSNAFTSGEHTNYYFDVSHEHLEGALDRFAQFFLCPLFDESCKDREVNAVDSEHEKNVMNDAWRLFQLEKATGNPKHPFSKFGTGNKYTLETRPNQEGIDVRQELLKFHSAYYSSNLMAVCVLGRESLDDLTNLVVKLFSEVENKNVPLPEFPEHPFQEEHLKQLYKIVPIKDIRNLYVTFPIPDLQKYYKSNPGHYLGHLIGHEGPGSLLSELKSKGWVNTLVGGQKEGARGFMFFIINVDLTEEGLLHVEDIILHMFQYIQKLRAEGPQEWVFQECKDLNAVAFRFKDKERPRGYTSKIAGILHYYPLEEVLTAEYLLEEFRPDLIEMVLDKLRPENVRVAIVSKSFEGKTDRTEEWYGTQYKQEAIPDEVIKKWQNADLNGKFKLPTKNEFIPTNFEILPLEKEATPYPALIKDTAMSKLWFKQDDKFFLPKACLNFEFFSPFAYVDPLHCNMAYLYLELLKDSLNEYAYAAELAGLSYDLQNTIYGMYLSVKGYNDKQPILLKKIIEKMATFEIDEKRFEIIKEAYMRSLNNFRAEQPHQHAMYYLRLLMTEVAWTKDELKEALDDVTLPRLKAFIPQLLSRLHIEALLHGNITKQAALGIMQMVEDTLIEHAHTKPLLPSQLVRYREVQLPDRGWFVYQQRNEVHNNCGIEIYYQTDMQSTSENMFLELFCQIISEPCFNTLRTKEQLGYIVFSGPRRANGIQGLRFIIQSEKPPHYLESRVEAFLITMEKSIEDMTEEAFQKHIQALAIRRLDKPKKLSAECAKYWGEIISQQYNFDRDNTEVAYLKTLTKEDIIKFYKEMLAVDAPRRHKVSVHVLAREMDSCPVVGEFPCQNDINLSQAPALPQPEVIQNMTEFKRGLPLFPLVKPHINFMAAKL

Protein skinhead-1 = target: T2, Protein skinhead-1 (Caenorhabditis elegans, UniProt P34707); format: functional
T2 sequence (P34707 whole entry): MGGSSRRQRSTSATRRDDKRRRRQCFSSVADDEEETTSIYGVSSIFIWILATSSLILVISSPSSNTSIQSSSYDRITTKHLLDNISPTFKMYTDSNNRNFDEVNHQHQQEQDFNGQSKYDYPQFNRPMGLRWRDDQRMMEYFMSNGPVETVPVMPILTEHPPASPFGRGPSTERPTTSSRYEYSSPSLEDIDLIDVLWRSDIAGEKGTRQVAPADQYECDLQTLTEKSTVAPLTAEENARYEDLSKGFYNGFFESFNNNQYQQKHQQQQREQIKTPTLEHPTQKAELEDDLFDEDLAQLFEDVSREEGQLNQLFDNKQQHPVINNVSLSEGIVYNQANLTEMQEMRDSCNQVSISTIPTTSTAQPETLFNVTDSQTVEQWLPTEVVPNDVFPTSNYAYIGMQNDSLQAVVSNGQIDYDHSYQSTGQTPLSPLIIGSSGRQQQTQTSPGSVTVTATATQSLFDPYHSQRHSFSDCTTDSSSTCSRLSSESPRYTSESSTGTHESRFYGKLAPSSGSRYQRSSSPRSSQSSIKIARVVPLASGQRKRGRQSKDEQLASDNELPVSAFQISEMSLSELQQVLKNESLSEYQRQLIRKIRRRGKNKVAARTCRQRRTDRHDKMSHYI

[8] = Counterscreen for IDE inhibitors: Luminescence-based cell-based high throughput dose response assay to identify compounds that are cytotoxic to HEK cells. [Related pubchem assays: 434962 (Primary screen (IDE inhibitors in singlicate)), 449730 (Counterscreen (Cytotoxicity in triplicate)), 435028 (Confirmation (IDE inhibitors in triplicate)) …; format: functional; settings: HEK293
[9] = target: T3, Mannose-6-phosphate isomerase (Homo sapiens, UniProt P34949); assay: inhibitors of human PMI, primary screen, biochemical, fluorescence intensity, coupled assay (AID 1209)
T3 sequence (P34949 whole entry): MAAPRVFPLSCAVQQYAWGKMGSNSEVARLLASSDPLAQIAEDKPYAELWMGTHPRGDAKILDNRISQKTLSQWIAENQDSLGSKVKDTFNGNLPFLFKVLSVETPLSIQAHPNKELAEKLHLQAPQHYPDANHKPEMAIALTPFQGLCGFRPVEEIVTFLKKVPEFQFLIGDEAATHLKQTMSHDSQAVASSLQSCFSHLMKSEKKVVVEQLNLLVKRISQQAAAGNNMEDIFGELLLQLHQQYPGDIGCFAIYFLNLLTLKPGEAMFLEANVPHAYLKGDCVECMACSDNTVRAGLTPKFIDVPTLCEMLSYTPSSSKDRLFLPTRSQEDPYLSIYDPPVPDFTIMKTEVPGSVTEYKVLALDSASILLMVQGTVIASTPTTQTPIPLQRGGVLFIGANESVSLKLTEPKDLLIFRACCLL

[10] = target: T3, Mannose-6-phosphate isomerase; assay: human PMI inhibitors, high substrate, primary screen, biochemical, fluorescence intensity, high mannose 6-phosphate (AID 1220)
Estrogen receptor beta = Estrogen receptor beta (Homo sapiens, UniProt Q92731); assay: ERβ–SRC-3 coactivator interaction inhibitors, confirmation, orthogonal assay, biochemical, ELISA, streptavidin-HRP readout (AID 1060)
Chain of Estrogen receptor beta (Q92731 whole entry): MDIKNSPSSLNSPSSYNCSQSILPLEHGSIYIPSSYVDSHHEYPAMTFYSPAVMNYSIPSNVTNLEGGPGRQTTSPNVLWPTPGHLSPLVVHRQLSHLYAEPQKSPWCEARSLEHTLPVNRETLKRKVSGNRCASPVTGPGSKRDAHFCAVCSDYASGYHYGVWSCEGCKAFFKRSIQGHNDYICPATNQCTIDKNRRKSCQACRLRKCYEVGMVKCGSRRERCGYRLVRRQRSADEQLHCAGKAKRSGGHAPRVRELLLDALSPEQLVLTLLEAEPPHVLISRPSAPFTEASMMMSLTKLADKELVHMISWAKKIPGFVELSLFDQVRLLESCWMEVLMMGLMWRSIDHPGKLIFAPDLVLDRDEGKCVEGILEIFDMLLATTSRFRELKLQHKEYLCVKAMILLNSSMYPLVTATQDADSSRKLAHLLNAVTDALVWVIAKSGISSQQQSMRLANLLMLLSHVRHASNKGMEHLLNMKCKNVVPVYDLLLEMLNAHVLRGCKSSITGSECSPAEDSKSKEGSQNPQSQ

Chain of Neuropeptide Y receptor type 1 (P25929 whole entry): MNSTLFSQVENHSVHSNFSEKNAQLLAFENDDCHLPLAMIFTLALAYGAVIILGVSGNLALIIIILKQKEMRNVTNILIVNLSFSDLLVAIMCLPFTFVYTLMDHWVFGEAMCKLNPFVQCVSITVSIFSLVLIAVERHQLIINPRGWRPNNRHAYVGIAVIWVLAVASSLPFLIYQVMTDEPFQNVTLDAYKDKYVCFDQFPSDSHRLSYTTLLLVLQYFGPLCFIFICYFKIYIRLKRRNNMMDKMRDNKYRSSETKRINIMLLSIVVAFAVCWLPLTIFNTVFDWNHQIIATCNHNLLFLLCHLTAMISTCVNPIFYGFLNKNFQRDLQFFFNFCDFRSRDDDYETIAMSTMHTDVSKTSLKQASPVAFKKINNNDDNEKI
Chain of RNA-editing ligase 1, mitochondrial (P86926 whole entry): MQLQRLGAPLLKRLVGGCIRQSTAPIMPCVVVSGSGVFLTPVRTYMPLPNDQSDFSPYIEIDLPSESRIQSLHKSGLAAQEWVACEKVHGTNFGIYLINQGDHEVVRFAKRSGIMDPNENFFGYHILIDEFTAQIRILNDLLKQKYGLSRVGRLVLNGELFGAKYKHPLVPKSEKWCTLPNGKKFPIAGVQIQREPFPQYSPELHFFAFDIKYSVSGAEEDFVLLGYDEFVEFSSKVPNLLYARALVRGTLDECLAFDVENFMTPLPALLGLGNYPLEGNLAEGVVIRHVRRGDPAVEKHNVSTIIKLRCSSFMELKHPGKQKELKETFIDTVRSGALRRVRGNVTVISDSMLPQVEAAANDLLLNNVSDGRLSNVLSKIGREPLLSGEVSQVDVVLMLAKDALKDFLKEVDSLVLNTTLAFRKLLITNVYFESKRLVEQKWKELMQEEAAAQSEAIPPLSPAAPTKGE
Chain of Neuropeptide Y receptor type 2 (P49146 whole entry): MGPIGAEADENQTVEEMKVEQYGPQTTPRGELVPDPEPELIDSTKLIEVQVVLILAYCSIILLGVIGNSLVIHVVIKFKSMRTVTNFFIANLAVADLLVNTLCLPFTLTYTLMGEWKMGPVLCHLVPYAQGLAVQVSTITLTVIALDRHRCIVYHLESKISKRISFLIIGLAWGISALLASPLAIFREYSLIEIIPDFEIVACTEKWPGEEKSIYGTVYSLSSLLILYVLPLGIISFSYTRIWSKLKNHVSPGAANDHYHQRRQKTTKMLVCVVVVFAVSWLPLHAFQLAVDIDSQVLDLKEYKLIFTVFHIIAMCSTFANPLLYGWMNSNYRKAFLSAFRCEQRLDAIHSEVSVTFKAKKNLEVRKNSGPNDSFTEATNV

Cc1cc(Cl)c(OCCCNCc2ccccc2)c(Br)c1
IC50 [1]: 5.15 µM (active) | EC50 [2]: 14.3 µM (active) | EC50 [3]: 1.86 µM (active) | EC50 [4]: 16.5 µM (active) | IC50 [5]: > 96.6 µM (inactive) | EC50 [6]: 21.9 µM (active) | IC50 [7]: 5.39 µM (active)

CC(OC(=O)/C(C#N)=C/c1ccc(N(C)C)cc1)C(=O)N(C)c1ccccc1 (stereo not drawn)
IC50 (Insulin-degrading enzyme): 21.4 µM (not active) | IC50 (Protein skinhead-1): > 100 µM (inactive) | IC50 [8]: 40.3 µM (not active)

CC1(C)Oc2ccc3ccc(=O)oc3c2-c2cnoc21
IC50 [9]: > 50 µM (not active) | IC50 [10]: > 50 µM (not active)

CN(C)c1ccc(NC(=O)N2CCOCC2)cc1
IC50 (Estrogen receptor beta): 0.0633 µM (not active)
